Assay results as given in ChEMBL document CHEMBL1146953, “Carbonic anhydrase inhibitors: cloning and sulfonamide inhibition studies of a carboxyterminal truncated alpha-carbonic anhydrase from Helicobacter pylori” (Bioorg Med Chem Lett, 2006).

These molecules were tested against carbonic anhydrase (Helicobacter pylori, UniProt O25798).
carbonic anhydrase, sequence (O25798 1-202): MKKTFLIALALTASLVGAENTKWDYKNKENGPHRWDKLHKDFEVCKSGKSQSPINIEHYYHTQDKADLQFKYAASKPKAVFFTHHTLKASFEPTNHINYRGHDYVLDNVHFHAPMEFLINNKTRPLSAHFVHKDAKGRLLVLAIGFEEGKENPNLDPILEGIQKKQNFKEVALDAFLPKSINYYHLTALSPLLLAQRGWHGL
Description: (§1) Inhibition of Helicobacter pylori recombinant CA
For `NNc1ccccc1S(N)(=O)=O`, the Ki was 0.562 µM. Work on `Nc1nccc(Nc2ccc(S(N)(=O)=O)cc2)n1` yielded a Ki of 0.072 µM. Work on `Cn1nc(S(N)(=O)=O)sc1=N` yielded a Ki of 0.494 µM. `NCc1ccc(S(N)(=O)=O)cc1` [MAFENIDE] gave a Ki of 0.83 µM. `Nc1ccc(S(N)(=O)=O)cc1F` showed a Ki of 1.31 µM. With `Nc1ccc(S(N)(=O)=O)cc1Br` the Ki was 0.463 µM. For `NS(=O)(=O)c1ccc(CO)cc1`, the Ki was 0.87 µM. Molecule `Nc1ccc(S(N)(=O)=O)cc1I` has a Ki of 0.504 µM. `CCN[C@H]1CN(CCCOC)S(=O)(=O)c2sc(S(N)(=O)=O)cc21` [BRINZOLAMIDE] was tested, and the Ki was 0.246 µM. In the case of `Nc1cc(Cl)c(S(N)(=O)=O)cc1S(N)(=O)=O`, the Ki is reported as 0.041 µM. Work on `NS(=O)(=O)c1nnc(-c2ccccc2Cl)s1` yielded a Ki of 0.084 µM. `NCCc1ccc(S(N)(=O)=O)cc1` gave a Ki of 1.03 µM. Molecule `Nc1ccc(S(=O)(=O)Nc2nnc(S(N)(=O)=O)s2)cc1` has a Ki of 0.213 µM. In the case of `Nc1ccc(S(N)(=O)=O)cc1Cl`, the Ki is reported as 0.395 µM. With `NS(=O)(=O)c1nc2ccc(O)cc2s1` the Ki was 0.174 µM. In the case of `NS(=O)(=O)c1ccc(S(=O)(=O)Nc2cccc3c(Cl)c[nH]c23)cc1`, the Ki is reported as 0.434 µM. `NS(=O)(=O)c1ccc(CCO)cc1` showed a Ki of 1.16 µM. Molecule `NS(=O)(=O)c1nnc(NS(=O)(=O)c2ccccc2)s1` [BENZOLAMIDE] has a Ki of 0.287 µM. For `NS(=O)(=O)c1ccc(C(=O)O)cc1` [CARZENIDE], the Ki was 1.08 µM. `Cc1ccc(S(N)(=O)=O)cc1` [P-TOLUENESULFONAMIDE] gave a Ki of 0.473 µM. `Nc1ccc(S(=O)(=O)NCCc2ccc(S(N)(=O)=O)cc2)cc1` gave a Ki of 0.096 µM. `Nc1cc(C(F)(F)F)c(S(N)(=O)=O)cc1S(N)(=O)=O` [2,4-DISULFAMYLTRIFLUOROMETHYLANILINE] gave a Ki of 0.402 µM. Work on `Nc1ccc(S(N)(=O)=O)cc1` [SULFANILAMIDE] yielded a Ki of 0.431 µM. `Nc1ccc(S(=O)(=O)NCc2ccc(S(N)(=O)=O)cc2)cc1` gave a Ki of 0.124 µM. `CCOc1ccc2nc(S(N)(=O)=O)sc2c1` [ETHOXZOLAMIDE] was tested, and the Ki was 0.155 µM.

These molecules were tested against T1, Carbonic anhydrase (Helicobacter pylori (strain ATCC 700392 / 26695) (Campylobacterpylori), UniProt O24855).
T1 sequence (O24855 whole entry): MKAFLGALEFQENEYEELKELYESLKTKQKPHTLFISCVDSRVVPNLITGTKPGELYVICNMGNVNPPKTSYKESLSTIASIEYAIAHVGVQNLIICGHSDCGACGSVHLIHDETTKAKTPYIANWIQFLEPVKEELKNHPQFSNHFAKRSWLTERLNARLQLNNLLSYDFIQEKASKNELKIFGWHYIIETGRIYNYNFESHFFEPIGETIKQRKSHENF
Description: as §1
In the case of `CC1(C)O[C@@H]2[C@@H](CO[C@@]3(COS(N)(=O)=O)OC(C)(C)O[C@@H]23)O1` [TOPIRAMATE], the Ki is reported as 0.205 µM.
